The series is described as follows: Wetting angle (contact angle) of the API by goniometer. The format is physicochemical. As to conditions: advancing contact angle, water, 22° C., about 34% RH; accuracy about ±2°; ditosylate monohydrate. How it is done: Alternatively, the above described necessities can be complied with if the active pharmaceutical ingredient used in the preparation of the pharmaceutical composition has a low wetting angle (also: contact angle). The contact angle is a measure of the wettability, that is the lower the contact angle of a given substance, the better it's wettability. Preferably, the wetting angle is below 55°, preferably below 50° and most preferred below 47°. The wetting angle can be measured according to standard methods known in the art, e.g. by means of a goniometer. For this measurement 0.3 g of API is compressed using a KBr press (2000 kg for 2 minutes) to a moulding with a diameter of 1.25 cm. The sample is stored at 100% RH and placed on a glass frit that is kept in contact with water (Millipore quality) one hour prior to the measurement. The wetting angle is then measured on an OCA40, Dataphysics Instruments GmbH, Filderstadt, at 22° C. and about 34% RH at three different sample positions and at different drop sites (3-5 μl of water, Millipore quality) by a static measurement of advancing and receding contact angles via drop contour analysis using ellipse fit (SCA 20, Dataphysics Instruments GmbH, Filderstadt). The wetting angle is defined as the advancing contact angle. The accuracy of measurement is about ±2°.

In turn, “Lapatinib ditosylate monohydrate [API used in examples 1 and 2]” came in with a contact angle of 56 °.
For “Lapatinib ditosylate monohydrate [API used in examples 3 to 5]”, the contact angle is reported as 45 °.

(Values after patent US20120015965A1, “PHARMACEUTICAL COMPOSITION COMPRISING N-[3-CHLORO-4-[(3-FLUOROPHENYL)METHOXY] PHENYL]-6-[5[[[2-(METHYLSULFONYL) ETHYL]AMINO]METHYL]-2-FURYL]-4- QUINAZOLINAMINE” (Ratiopharm GmbH, priority 2008, published 2012).)
